Data as given in paper PMC10584882 (Communications Biology, 2023).
Where “and” joins values, the source holds several entries; their conditions need not be identical. Equal entries are not always repeated.

Columns and labels:
[1] = target: T1, human CatV (Homo sapiens, UniProt O60911); assay: Cathepsin inhibition test, CatV; type: biochemical; settings: Fig. S3 panel c, single replicates
T1 construct: made in house

[2] = target: T2, human CatK (Homo sapiens, UniProt P43235); assay: Cathepsin inhibition test, CatK; type: biochemical; settings: Fig. S3 panel a, single replicates
T2 construct: made in house
T2 sequence (P43235 115-329): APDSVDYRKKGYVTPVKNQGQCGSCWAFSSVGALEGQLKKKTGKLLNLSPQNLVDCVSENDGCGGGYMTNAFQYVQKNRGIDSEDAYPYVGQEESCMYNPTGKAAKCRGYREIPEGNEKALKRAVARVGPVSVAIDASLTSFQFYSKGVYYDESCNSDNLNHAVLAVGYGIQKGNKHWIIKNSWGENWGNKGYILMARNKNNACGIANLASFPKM

[3] = target: T3, CatL (Homo sapiens, UniProt P07711); assay: Cathepsin inhibition test, CatL; type: biochemical; settings: for Residual activity (Vi/V0): Fig. S3 panel b, single replicates
T3 construct: made in house

[4] = tested on: SARS-CoV-2-GFP; assay: microbe, parasite or virus in culture; type: cell-based; settings: mean with standard error, read-out: VERO E6 EC50
[5] = inhibitor 0.105 nM, 0.000105 µM
[6] = inhibitor 0.189 nM, 0.000189 µM
[7] = inhibitor 0.612 nM, 0.000612 µM
[8] = inhibitor 1.103 nM, 0.001103 µM
[9] = inhibitor 1.985 nM, 0.001985 µM
[10] = inhibitor 3.572 nM, 0.003572 µM
[11] = inhibitor 11.547 nM, 0.011547 µM
[12] = inhibitor 20.833 nM, 0.020833 µM

T1 sequence (O60911 114-334): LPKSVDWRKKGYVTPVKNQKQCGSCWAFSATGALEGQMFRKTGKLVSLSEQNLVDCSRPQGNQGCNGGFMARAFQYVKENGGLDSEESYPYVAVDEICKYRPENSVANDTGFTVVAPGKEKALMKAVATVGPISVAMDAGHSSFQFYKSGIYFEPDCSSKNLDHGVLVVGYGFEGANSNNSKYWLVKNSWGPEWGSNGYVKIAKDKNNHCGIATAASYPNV
T3 sequence (P07711 114-333): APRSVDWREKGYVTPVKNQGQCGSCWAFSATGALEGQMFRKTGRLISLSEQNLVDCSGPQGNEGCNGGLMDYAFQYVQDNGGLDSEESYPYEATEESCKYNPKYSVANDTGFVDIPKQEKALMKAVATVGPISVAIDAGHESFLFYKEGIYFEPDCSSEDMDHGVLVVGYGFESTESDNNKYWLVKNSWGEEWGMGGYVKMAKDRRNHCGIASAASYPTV

Question: What does the source list for `CC(C)C[C@H](NC(=O)OCc1ccccc1)C(=O)N[C@@H](C[C@@H]1CCNC1=O)C(O)S(=O)(=O)[O-].[Na+]` (stereo partly drawn) [GC376]?
Answer: Residual activity (Vi/V0) ([1]; inhibitor 0.010 nM, 10 pM): 1.0857 and 1.077 and 0.9774 and 0.8982 and 0.991 and 0.8512 and 1.1 and 0.8679; Residual activity (Vi/V0) ([1]; inhibitor 0.018 nM, 18 pM): 1.336 and 1.266 and 0.9662 and 0.9302 and 1.04 and 0.8965 and 1.124 and 0.9597; Residual activity (Vi/V0) ([1]; inhibitor 0.032 nM, 32 pM): 1.039 and 0.8981 and 0.9517 and 0.9088 and 1.019 and 0.9688 and 1.292 and 0.8604; Residual activity (Vi/V0) ([1]; inhibitor 0.058 nM, 58 pM): 0.6518 and 0.5159 and 0.8896 and 0.8461 and 0.9826 and 0.9436 and 1.221 and 0.8427; Residual activity (Vi/V0) [1, 5]: 0.9622 and 0.7389 and 0.9442 and 0.8081 and 0.8801 and 0.8142 and 1.285 and 0.7581; Residual activity (Vi/V0) [1, 6]: 0.6972 and 0.4428 and 0.8137 and 0.7094 and 0.8934 and 0.7434 and 1.066 and 0.6389; Residual activity (Vi/V0) ([1]; inhibitor 0.340 nM, 0.00034 µM): 0.6247 and 0.3497 and 0.4956 and 0.4527 and 0.4873 and 0.5939 and 0.9738 and 0.4752; Residual activity (Vi/V0) [1, 7]: 0.3307 and 0.2457 and 0.4411 and 0.4505 and 0.4917 and 0.4681 and 0.5327 and 0.3674; Residual activity (Vi/V0) [1, 8]: 0.3031 and 0.1765 and 0.2948 and 0.2868 and 0.2798 and 0.3141 and 0.3564 and 0.2414; Residual activity (Vi/V0) ([2]; inhibitor 0.010 nM, 10 pM): 1 and 1.168 and 0.9786 and 1.164 and 0.971; Residual activity (Vi/V0) ([2]; inhibitor 0.018 nM, 18 pM): 1.045 and 0.9537 and 0.8787 and 1.068 and 0.891; Residual activity (Vi/V0) ([2]; inhibitor 0.032 nM, 32 pM): 1.008 and 0.9541 and 1.052 and 1.097 and 0.9731; Residual activity (Vi/V0) ([2]; inhibitor 0.058 nM, 58 pM): 0.9618 and 1.104 and 1; Residual activity (Vi/V0) [2, 5]: 0.7126 and 0.7756 and 0.8857 and 0.9962 and 0.9154; Residual activity (Vi/V0) [2, 6]: 0.687 and 0.7701 and 0.8381 and 0.9358 and 0.9354; Residual activity (Vi/V0) ([2]; inhibitor 0.340 nM, 0.00034 µM): 0.5857 and 0.5656 and 0.9002 and 0.8293 and 0.7129; Residual activity (Vi/V0) [2, 7]: 0.5454 and 0.3889 and 0.8833 and 0.6839 and 0.5394; Residual activity (Vi/V0) [2, 8]: 0.3854 and 0.2819 and 0.6231 and 0.4604 and 0.4262; Residual activity (Vi/V0) [2, 9]: 0.2545 and 0.4374 and 0.3426 and 0.223; Residual activity (Vi/V0) [2, 10]: 0.1189 and 0.1895 and 0.3494 and 0.2326 and 0.2097; Residual activity (Vi/V0) ([2]; inhibitor 6.430 nM, 0.00643 µM): 0.1182 and 0.1529 (2×) and 0.2134 and 0.1788; Residual activity (Vi/V0) [2, 11]: 0.09726 and 0.09205 and 0.1617 and 0.0793 and 0.08002; Residual activity (Vi/V0) [2, 12]: -0.01061 and 0.0635 and 0.09619 and 0.03724 and 0.04497; Residual activity (Vi/V0) ([2]; inhibitor 37.500 nM, 0.0375 µM): 0.05483 and -0.02967 and 0.05665 and 0.01671; Residual activity (Vi/V0) [3, 6]: 0.8855 and 0.7968 and 0.4672 and 0.774 and 0.5436 and 0.6444 and 0.6384 and 0.5984 and 0.8706 and 0.7685; Residual activity (Vi/V0) ([3]; inhibitor 0.340 nM, 0.00034 µM): 0.6489 and 0.6117 and 0.2724 and 0.4771 and 0.3326 and 0.4189 and 0.397 and 0.4003 and 0.6575 and 0.5962; Residual activity (Vi/V0) [3, 7]: 0.6544 and 0.4591 and 0.279 and 0.4155 and 0.2277 and 0.7268 and 0.6794 and 0.7031 and 0.6487 and 0.6608; Residual activity (Vi/V0) [3, 8]: 0.448 and 0.2903 and 0.222 and 0.2673 and 0.2098 and 0.5439 and 0.5159 and 0.5223 and 0.4578 and 0.481; Residual activity (Vi/V0) [3, 9]: 0.2589 and 0.1857 and 0.1649 and 0.2093 and 0.1658 and 0.3522 and 0.3323 and 0.3518 and 0.2487 and 0.2662; Residual activity (Vi/V0) [3, 10]: 0.2062 and 0.1428 and 0.1169 and 0.1623 and 0.08981 and 0.207 and 0.1929 and 0.2019 and 0.196 and 0.2135; Residual activity (Vi/V0) ([3]; inhibitor 6.430 nM, 0.00643 µM): 0.139 and 0.09925 and 0.07105 and 0.118 and 0.08137 and 0.1289 and 0.127 and 0.1302 and 0.1295 and 0.1384; Residual activity (Vi/V0) [3, 11]: 0.09523 and 0.05909 and 0.04564 and 0.05812 and 0.04092 and 0.07914 and 0.07029 and 0.07354 and 0.08822 and 0.09606; Residual activity (Vi/V0) [3, 12]: 0.05198 and 0.03378 and 0.02298 and 0.02931 and 0.02488 and 0.02998 and 0.02815 and 0.0288 and 0.05176 and 0.05151; Residual activity (Vi/V0) ([3]; inhibitor 37.500 nM, 0.0375 µM): 0.02351 and 0.02002 and 0.01036 (2×) and 0.01453 and 0.0114 and 0.01064 and 0.01075 and 0.02418 and 0.02491

Question: Which Ki ([3]; mean with standard deviation and 95% confidence interval, pH 5.5, 37 °C) does the source give for `CC(C)C[C@H](NC(=O)OCc1ccccc1)C(=O)N[C@@H](CC1CCNC1=O)C(O)S(=O)(=O)O` (stereo partly drawn) [GC-376, reference compound] here?
Answer: The Ki was 0.259 nM.

Question: And the EC50 [4]?
Answer: Its EC50 is 1070 ± 278 nM.
